The values below come from patent publication US20060030566A1, “Novel quinoxalinone norepinephrine reuptake inhibitors for the treatment of central nervous system disorders” (Warner-Lambert Company, LLC, priority 2004, published 2006).

Series [1] concerns the target T1, human norepinephrine transporter (Homo sapiens, UniProt P23975).
T1 construct: host or cells: HEK-293
The series is described as follows: hNET receptor binding ([125I]-RTI-55 radioligand binding, membranes of transfected HEK-293 cells). To be noted: 50 pM [125I]-RTI-55, HEK-293 cell membranes, 90 min at room temperature; IC50 converted to Ki by Cheng-Prusoff equation. An excerpt: The ability of the compounds of this invention to bind to the hNET and serotonin SERT receptor can be determined using conventional radioligand receptor binding assays. The receptors can be heterologously expressed in cell lines and experiments conducted in membrane preparations from the cell lines using procedures outlined below. IC50 concentrations can be determined by nonlinear regression of concentration-dependent reduction in specific binding. The Cheng-Prussoff equation can be used to convert the IC50 to Ki concentrations.
Cell pastes of HEK-293 cells transfected with the human norepinephrine transporter were supplied by the Pfizer Ann Arbor Protein Expression and Production group. Pellets were resuspended in 400 to 700 ml of Krebs-HEPES assay buffer (25 mM HEPES, 122 mM NaCl, 3 mM KCl, 1.2 mM MgSO4, 1.3 mM CaCl2, and 11 mM glucose, pH 7.4) with a Polytron homogenizer at setting 7 for 30 sec. Aliquots of membranes (5 mg/ml protein) were stored in liquid nitrogen until used.
The binding assay was set up in Beckman deep-well polypropylene plates with a total volume of 250 μl containing: drug (10^−5M to 10^−12M), cell membranes, and 50 pM [^125I]-RTI-55 (Perkin Elmer, NEX-272; specific activity 2200 Ci/mmol). The reaction was incubated by gentle agitation for 90 min at room temperature and was terminated by filtration through Whatman GF/C filter plates using a Brandel 96-well plate harvester. Scintillation fluid (100 μl) was added to each well, and bound [^125I]-RTI-55 was determined using a Wallac Trilux Beta Plate Counter. Test compounds were run in duplicate, and specific binding was defined as the difference between binding in the presence and absence of 10 μM desipramine.
Excel and GraphPad Prism software were used for data calculation and analysis. IC50 values were converted to Ki values using the Cheng-Prusoff equation.

Where a name gives a salt, the structure may show the parent alone.

T1 sequence (P23975 whole entry): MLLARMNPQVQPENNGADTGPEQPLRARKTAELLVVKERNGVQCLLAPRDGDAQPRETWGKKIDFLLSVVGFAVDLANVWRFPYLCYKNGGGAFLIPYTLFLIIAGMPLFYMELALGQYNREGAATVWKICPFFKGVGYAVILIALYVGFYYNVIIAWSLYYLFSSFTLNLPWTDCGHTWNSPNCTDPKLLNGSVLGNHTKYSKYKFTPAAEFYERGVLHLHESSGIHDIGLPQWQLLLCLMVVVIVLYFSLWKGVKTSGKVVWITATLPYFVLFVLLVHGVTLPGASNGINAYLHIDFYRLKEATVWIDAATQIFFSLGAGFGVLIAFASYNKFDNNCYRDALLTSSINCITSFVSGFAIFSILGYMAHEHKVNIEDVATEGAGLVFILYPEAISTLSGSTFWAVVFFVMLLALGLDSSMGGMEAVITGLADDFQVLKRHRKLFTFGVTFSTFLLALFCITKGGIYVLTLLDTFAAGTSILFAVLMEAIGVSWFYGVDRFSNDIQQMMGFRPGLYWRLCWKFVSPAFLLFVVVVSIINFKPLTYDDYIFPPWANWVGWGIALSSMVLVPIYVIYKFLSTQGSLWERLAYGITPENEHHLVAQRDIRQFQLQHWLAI

A word on the melting point: it is the temperature of the solid-liquid transition. `O=c1c(N2CCNCC2)nc2ccccc2n1-c1ccccc1` (as salt: hydrochloride) [Example 2, 1-Phenyl-3-piperazin-1-yl-1H-quinoxalin-2-one Hydrochloride]: the melting point fell in the range of 290 to 292 °C. Still for that read-out and setting: for `O=c1c(N2CCNCC2)nc2ccccc2n1-c1ccccc1F` (as salt: hydrochloride) [Example 3, 1-(2-Fluoro-phenyl)-3-piperazin-1-yl-1H-quinoxalin-2-one Hydrochloride] the value was 261 to 263 °C; for `Cc1ccc(-n2c(=O)c(N3CCNCC3)nc3ccccc32)cc1` (as salt: maleate) [Example 7, 3-Piperazin-1-yl-1-p-tolyl-1H-quinoxalin-2-one Maleate], 197 to 199 °C; for `O=c1c(N2CCCNCC2)nc2ccccc2n1-c1ccccc1Cl` (as salt: maleate) [Example 11, 1-(2-Chloro-phenyl)-3-[1,4]diazepan-1-yl-1H-quinoxalin-2-one Maleate], 159 to 161 °C. `Cc1ccc(-n2c(=O)c(N3CCCNCC3)nc3ccccc32)cc1` (as salt: maleate) [Example 13, 3-[1,4]Diazepan-1-yl-1-p-tolyl-1H-quinoxalin-2-one Maleate]: the melting point was in the range of 199 to 200 °C. In turn, `CC(C)n1c(=O)c(N2CCCNCC2)nc2ccccc21` (as salt: maleate) [Example 15, 3-[1,4]Diazepan-1-yl-1-isopropyl-1H-quinoxalin-2-one Maleate] had a melting point of 147 to 149 °C. A word on the Ki: it is the equilibrium dissociation constant of an inhibitor or competing ligand from its target. A low value points to higher affinity. The compound `O=c1c(N2CCNCC2)nc2cc(F)ccc2n1-c1ccccc1` [Example 1, 6-Fluoro-1-phenyl-3-piperazin-1-yl-1H-quinoxalin-2-one] had a melting point of 150 to 152 °C. The compound further registered a Ki in series [1] of 12 nM. With `O=c1c(N2CCNCC2)nc2ccccc2n1-c1ccccc1` [Example 2, 1-Phenyl-3-piperazin-1-yl-1H-quinoxalin-2-one Hydrochloride], the affinity in series [1] corresponds to a Ki of 21 nM. On the same count and under the same terms, the figure for `O=c1c(N2CCNCC2)nc2ccccc2n1-c1ccccc1F` [Example 3, 1-(2-Fluoro-phenyl)-3-piperazin-1-yl-1H-quinoxalin-2-one Hydrochloride] is 11 nM. Compound `O=c1c(N2CCNCC2)nc2ccccc2n1-c1ccccc1Cl` [Example 4, 1-(2-Chloro-phenyl)-3-piperazin-1-yl-1H-quinoxalin-2-one] registered a melting point of 135 to 137 °C. In series [1], this compound registered an inhibition constant Ki of 44 nM.

The compound `Cc1ccccc1-n1c(=O)c(N2CCNCC2)nc2ccccc21` [Example 5, 3-Piperazin-1-yl-1-o-tolyl-1H-quinoxalin-2-one] gave a melting point of 151 to 153 °C. The compound further gave a Ki in series [1] of 69 nM.

In turn, `O=c1c(N2CCNCC2)nc2ccccc2n1-c1cccc(F)c1` [Example 6, 1-(3-Fluoro-phenyl)-3-piperazin-1-yl-1H-quinoxalin-2-one] gave a melting point of 149 to 150 °C. The compound further had a Ki in series [1] of 38 nM. `Cc1ccc(-n2c(=O)c(N3CCNCC3)nc3ccccc32)cc1` [Example 7, 3-Piperazin-1-yl-1-p-tolyl-1H-quinoxalin-2-one Maleate] registered a Ki in series [1] of 36 nM. `O=c1c(N2CCNCC2)nc2ccc(F)cc2n1-c1ccccc1` [Example 8, 7-Fluoro-1-phenyl-3-piperazin-1-yl-1H-quinoxalin-2-one] had a melting point of 142 to 143 °C. Further, the inhibition constant (Ki) in series [1] turned out to be 59 nM. The corresponding values for `Cc1ccc2nc(N3CCNCC3)c(=O)n(-c3ccccc3)c2c1` [Example 9, 7-Methyl-1-phenyl-3-piperazin-1-yl-1H-quinoxalin-2-one] are 166 to 168 °C and 82 nM. On the same counts, the results for `O=c1c(N2CCNCC2)nc2cc(F)ccc2n1-c1c(F)cccc1F` [Example 10, 1-(2,6-Difluoro-phenyl)-6-fluoro-3-piperazin-1-yl-1H-quinoxalin-2-one] are 146 to 147 °C and 15 nM.

`O=c1c(N2CCCNCC2)nc2ccccc2n1-c1ccccc1Cl` [Example 11, 1-(2-Chloro-phenyl)-3-[1,4]diazepan-1-yl-1H-quinoxalin-2-one Maleate] gave a Ki in series [1] of 41 nM. In turn, `O=c1c(N2CCCNCC2)nc2ccccc2n1-c1cccc(F)c1` [Example 12, 3-[1,4]Diazepan-1-yl-1-(3-fluoro-phenyl)-1H-quinoxalin-2-one] displayed a melting point of 128 to 129 °C. Moreover, the inhibition constant Ki in series [1] was 60 nM.

In series [1], `Cc1ccc(-n2c(=O)c(N3CCCNCC3)nc3ccccc32)cc1` [Example 13, 3-[1,4]Diazepan-1-yl-1-p-tolyl-1H-quinoxalin-2-one Maleate] came in with a Ki of 97 nM. In turn, `O=c1c(N2CCCNCC2)nc2cc(F)ccc2n1-c1ccccc1` [Example 14, 3-[1,4]Diazepan-1-yl-6fluoro-1-phenyl-1H-quinoxalin-2-one] registered a melting point of 151 to 152 °C. The compound also registered an inhibitory constant (Ki) in series [1] of 27 nM. `CC(C)n1c(=O)c(N2CCCNCC2)nc2ccccc21` [Example 15, 3-[1,4]Diazepan-1-yl-1-isopropyl-1H-quinoxalin-2-one Maleate]: affinity in series [1] was put at a Ki of 70 nM.
